Results on six compounds are retold here after PubChem BioAssay AID1918933 (Molecular Pharmacology Branch, DTP, NCI, 2023).

For this test, the system named is 186277-243-T-J2-PDC complex spheroid viability. In words: Anticancer human tumor 186277-243-T-J2-PDC patient-derived colon adenocarcinoma cell line growth inhibition. The note with it: for viability, T/C: stronger effect = lower value. Summed up: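 Drug combinations with the LSD1 inhibitor iadademstat tested on tumor cells co-cultured as spheroids with endothelial cells and mesenchymal stem cells. Concentrations descended in half-log increments from clinical Cmax or 10 microM.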

[1] abbreviates: curve of first compound, second compound 0.1 µM.
Setting [2] is: curve of first compound, second compound 0.316 µM.
Where [3] appears, read: curve of first compound, second compound 1 µM.
The mark [4] stands for this setting: curve of first compound, second compound 3.16 µM.
Setting [5] is: curve of first compound, second compound 10 µM.
[6] abbreviates: second compound 0.1 µM, first compound 0.00949 µM.
Setting [7] is: second compound 0.1 µM, first compound 0.03 µM.
Where [8] appears, read: second compound 0.1 µM, first compound 0.0949 µM.
The mark [9] stands for this setting: second compound 0.1 µM, first compound 0.3 µM.
Setting [10] is: second compound 0.1 µM, first compound 0.949 µM.
Where [11] appears, read: second compound 0.1 µM, first compound 3 µM.
[12] abbreviates: second compound 0.316 µM, first compound 0.00949 µM.
The mark [13] stands for this setting: second compound 0.316 µM, first compound 0.03 µM.
Where [14] appears, read: second compound 0.316 µM, first compound 0.0949 µM.
Where [15] appears, read: second compound 0.316 µM, first compound 0.3 µM.
Where [16] appears, read: second compound 0.316 µM, first compound 0.949 µM.
The mark [17] stands for this setting: second compound 0.316 µM, first compound 3 µM.
Where [18] appears, read: second compound 1 µM, first compound 0.00949 µM.
The mark [19] stands for this setting: second compound 1 µM, first compound 0.03 µM.
The mark [20] stands for this setting: second compound 1 µM, first compound 0.0949 µM.
The mark [21] stands for this setting: second compound 1 µM, first compound 0.3 µM.
Where [22] appears, read: second compound 1 µM, first compound 0.949 µM.
The mark [23] stands for this setting: second compound 1 µM, first compound 3 µM.
The mark [24] stands for this setting: second compound 3.16 µM, first compound 0.00949 µM.
Setting [25] is: second compound 3.16 µM, first compound 0.03 µM.
Setting [26] is: second compound 3.16 µM, first compound 0.0949 µM.
The mark [27] stands for this setting: second compound 3.16 µM, first compound 0.3 µM.
[28] abbreviates: second compound 3.16 µM, first compound 0.949 µM.
The mark [29] stands for this setting: second compound 3.16 µM, first compound 3 µM.
The mark [30] stands for this setting: second compound 10 µM, first compound 0.00949 µM.
Where [31] appears, read: second compound 10 µM, first compound 0.03 µM.
Setting [32] is: second compound 10 µM, first compound 0.0949 µM.
[33] abbreviates: second compound 10 µM, first compound 0.3 µM.
Where [34] appears, read: second compound 10 µM, first compound 0.949 µM.
The mark [35] stands for this setting: second compound 10 µM, first compound 3 µM.

As usually defined, the IC50 is the concentration at which inhibition is half-maximal. As usually defined, the viability, T/C is the result in the treated group divided by that in the control group, in per cent.

Several values for one entry are separate records, joined by “and”; a condition that tells them apart may be missing. Equal entries are not always repeated. A value given as a limit tells only on which side of the number the result lay.
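Also: 7 day exposure to compounds.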
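For viability, T/C in this document: 100% = DMSO vehicle control viability.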

Turning to `Cn1ncnc1C1c2n[nH]c(=O)c3cc(F)cc(c23)NC1c1ccc(F)cc1` (stereo not given) + NC1CC1c1ccc(-c2cccc(O)c2)cc1, the IC50 is over 100 nM under setting [1]; over 100 nM under setting [2]; over 100 nM under setting [3]; over 100 nM under setting [4]; over 100 nM under setting [5]. The viability, T/C by setting is: (second compound 0.1 µM, first compound 0.000316 µM) 110%; (second compound 0.1 µM, first compound 0.001 µM) 109%; (second compound 0.1 µM, first compound 0.00316 µM) 112%; (second compound 0.1 µM, first compound 0.01 µM) 110%; (second compound 0.1 µM, first compound 0.0316 µM) 106%; (second compound 0.1 µM, first compound 0.1 µM) 115%. For the same compound, the viability, T/C reads like this: (second compound 0.316 µM, first compound 0.000316 µM) 113%; (second compound 0.316 µM, first compound 0.001 µM) 110%; (second compound 0.316 µM, first compound 0.00316 µM) 93.8%; (second compound 0.316 µM, first compound 0.01 µM) 97.7%; (second compound 0.316 µM, first compound 0.0316 µM) 100%; (second compound 0.316 µM, first compound 0.1 µM) 106%. In addition, the viability, T/C is, setting by setting: (second compound 1 µM, first compound 0.000316 µM) 113%; (second compound 1 µM, first compound 0.001 µM) 114%; (second compound 1 µM, first compound 0.00316 µM) 120%; (second compound 1 µM, first compound 0.01 µM) 104%; (second compound 1 µM, first compound 0.0316 µM) 108%; (second compound 1 µM, first compound 0.1 µM) 110%. The viability, T/C is 110% (second compound 3.16 µM, first compound 0.000316 µM); 115% (second compound 3.16 µM, first compound 0.001 µM); 112% (second compound 3.16 µM, first compound 0.00316 µM); 107% (second compound 3.16 µM, first compound 0.01 µM); 113% (second compound 3.16 µM, first compound 0.0316 µM); 110% (second compound 3.16 µM, first compound 0.1 µM). The viability, T/C (second compound 10 µM, first compound 0.000316 µM) is 110%; the viability, T/C (second compound 10 µM, first compound 0.001 µM) was 106%; the viability, T/C (second compound 10 µM, first compound 0.00316 µM) is 127%; the viability, T/C (second compound 10 µM, first compound 0.01 µM) was 109%; the viability, T/C (second compound 10 µM, first compound 0.0316 µM) was 104%; the viability, T/C (second compound 10 µM, first compound 0.1 µM) is 100%.

Consider `CC1COCCN1c1cc(-c2ccnn2C)c2ccnc(-c3ccn[nH]3)c2n1` (stereo not given), for which the viability, T/C (compound 0.00316 µM) is 77.4% and 18.2%; the viability, T/C (compound 0.01 µM) is 30.1% and 14%; the viability, T/C (compound 0.0316 µM) is 11.1% and 8.92%; the viability, T/C (compound 0.1 µM) was 9.14% and 7.83%; the viability, T/C (compound 0.316 µM) was 10.1% and 8.98%; the viability, T/C (compound 1 µM) was 11.4% and 7.8%. For the setting “curve of compound”, the IC50 is 6.15 nM and < 3.16 nM.

Turning to `O=C(C=Cc1cccc(S(=O)(=O)Nc2ccccc2)c1)NO`, the viability, T/C was 102% and 94.1% (compound 0.00949 µM); 100% and 96.4% (compound 0.03 µM); 84.3% and 80.5% (compound 0.0949 µM); 36.6% and 22.1% (compound 0.3 µM); 15.3% and 3.68% (compound 0.949 µM). Moreover, for the setting “curve of compound”, the IC50 is 223 nM and 234 nM.

With `NS(=O)(=O)OCC1CC(n2ccc3c(NC4CCc5ccccc54)ncnc32)CC1O` (stereo not given) + NC1CC1c1ccc(-c2cccc(O)c2)cc1, the IC50 reads like this: under setting [1], 249 nM; under setting [2], 303 nM; under setting [3], 319 nM; under setting [4], 397 nM; under setting [5], 265 nM. For the same compound, the viability, T/C by setting is: under setting [6], 98.8%; under setting [7], 89.8%; under setting [8], 76.8%; under setting [9], 47.3%; under setting [10], 11%; under setting [11], 4.48%. Besides, the viability, T/C is 104% under setting [12]; 101% under setting [13]; 82.3% under setting [14]; 53.9% under setting [15]; 11.7% under setting [16]; 3.87% under setting [17]. In addition, the viability, T/C under setting [18] was 116%; the viability, T/C under setting [19] is 96.8%; the viability, T/C under setting [20] was 85.1%; the viability, T/C under setting [21] was 55.9%; the viability, T/C under setting [22] is 14.4%; the viability, T/C under setting [23] was 4.26%. The viability, T/C under setting [24] was 116%; the viability, T/C under setting [25] was 98.2%; the viability, T/C under setting [26] was 84.4%; the viability, T/C under setting [27] was 69%; the viability, T/C under setting [28] was 12.8%; the viability, T/C under setting [29] is 3.82%. Further, the viability, T/C is, setting by setting: under setting [30], 107%; under setting [31], 90.6%; under setting [32], 73.4%; under setting [33], 52.8%; under setting [34], 14%; under setting [35], 3.25%.

Take `CCN(c1cc(-c2ccc(CN3CCOCC3)cc2)cc(C(=O)NCc2c(C)cc(C)[nH]c2=O)c1C)C1CCOCC1` + NC1CCC(NC2CC2c2ccccc2)CC1: the half-inhibitory concentration (IC50) is over 3000 nM under setting [1]; over 3000 nM under setting [2]; over 3000 nM under setting [3]; over 3000 nM under setting [4]; over 3000 nM under setting [5]. In addition, the viability, T/C was 108% under setting [6]; 94% under setting [7]; 108% under setting [8]; 116% under setting [9]; 105% under setting [10]; 110% under setting [11]. Besides, the viability, T/C was 112% under setting [12]; 102% under setting [13]; 110% under setting [14]; 112% under setting [15]; 113% under setting [16]; 113% under setting [17]. For the same compound, the viability, T/C is 122% under setting [18]; 121% under setting [19]; 108% under setting [20]; 111% under setting [21]; 111% under setting [22]; 102% under setting [23]. The viability, T/C was 110% under setting [24]; 115% under setting [25]; 107% under setting [26]; 117% under setting [27]; 121% under setting [28]; 111% under setting [29]. The viability, T/C under setting [30] is 105%; the viability, T/C under setting [31] is 94.8%; the viability, T/C under setting [32] was 95.9%; the viability, T/C under setting [33] is 107%; the viability, T/C under setting [34] was 109%; the viability, T/C under setting [35] is 98.3%.

As for `COc1ccc([C@@H](O)c2cc(-c3ncnc4cc(N5CCOCC5)ccc34)c(F)cc2Cl)nn1`, the viability, T/C (compound 0.0316 µM) is 103% and 101%; the viability, T/C (compound 0.1 µM) was 104% and 100%; the viability, T/C (compound 0.316 µM) was 87.8% and 101%; the viability, T/C (compound 1 µM) is 84.4% and 100%; the viability, T/C (compound 3.16 µM) was 46.7% and 64.8%; the viability, T/C (compound 10 µM) was 3.51% and 12.2%. Also, for the setting “curve of compound”, the IC50 was 2970 nM and 4370 nM.
